Reference: the NIST ThermoML archive (doi:10.1021/je050141m)
Numbers after ± are expanded uncertainties.

Settings: Liquid, Ebulliometric method (Recirculating still)

SMILES: CCCCCCO [hexan-1-ol]
- vapor or sublimation pressure (391.07 K): 25 ± 0.2 kPa
- vapor or sublimation pressure (395.62 K): 30 ± 0.3 kPa
- vapor or sublimation pressure (399.65 K): 35 ± 0.3 kPa
- vapor or sublimation pressure (403.15 K): 40 ± 0.3 kPa
- vapor or sublimation pressure (406.36 K): 45 ± 0.4 kPa
- vapor or sublimation pressure (409.25 K): 50 ± 0.4 kPa
- vapor or sublimation pressure (411.92 K): 55 ± 0.5 kPa
- vapor or sublimation pressure (414.44 K): 60 ± 0.5 kPa
- vapor or sublimation pressure (416.75 K): 65 ± 0.5 kPa
- vapor or sublimation pressure (418.98 K): 70 ± 0.6 kPa
- vapor or sublimation pressure (421.05 K): 75 ± 0.6 kPa
- vapor or sublimation pressure (423.01 K): 80 ± 0.6 kPa
- vapor or sublimation pressure (424.87 K): 85 ± 0.7 kPa
- vapor or sublimation pressure (426.69 K): 90 ± 0.7 kPa

SMILES: CCCCCCOC(C)=O [hexyl ethanoate]
- vapor or sublimation pressure (397.97 K): 25 ± 0.2 kPa
- vapor or sublimation pressure (403.36 K): 30 ± 0.2 kPa
- vapor or sublimation pressure (408.02 K): 35 ± 0.3 kPa
- vapor or sublimation pressure (412.14 K): 40 ± 0.3 kPa
- vapor or sublimation pressure (416.02 K): 45 ± 0.3 kPa
- vapor or sublimation pressure (419.47 K): 50 ± 0.4 kPa
- vapor or sublimation pressure (422.59 K): 55 ± 0.4 kPa
- vapor or sublimation pressure (425.57 K): 60 ± 0.4 kPa
- vapor or sublimation pressure (428.26 K): 65 ± 0.5 kPa
- vapor or sublimation pressure (430.93 K): 70 ± 0.5 kPa
- vapor or sublimation pressure (433.38 K): 75 ± 0.5 kPa
- vapor or sublimation pressure (435.68 K): 80 ± 0.6 kPa
- vapor or sublimation pressure (437.92 K): 85 ± 0.6 kPa
- vapor or sublimation pressure (439.98 K): 90 ± 0.6 kPa
